This note sets out measurements from article PMC3921447, “Homologous and heterologous desensitization of guanylyl cyclase-B signaling in GH3 somatolactotropes” (Cell and Tissue Research, 2013).

Common to all, as to type: cell-based
Experiment [1] addresses T1, GC-B (Rattus norvegicus, UniProt P16067).
T1 construct: rapid homologous desensitization of endogenous GC-B receptors in GH3 cells; endogenous in cells; host or cells: GH3 rat somatolactotrope cells
T1 sequence (P16067 17-1047): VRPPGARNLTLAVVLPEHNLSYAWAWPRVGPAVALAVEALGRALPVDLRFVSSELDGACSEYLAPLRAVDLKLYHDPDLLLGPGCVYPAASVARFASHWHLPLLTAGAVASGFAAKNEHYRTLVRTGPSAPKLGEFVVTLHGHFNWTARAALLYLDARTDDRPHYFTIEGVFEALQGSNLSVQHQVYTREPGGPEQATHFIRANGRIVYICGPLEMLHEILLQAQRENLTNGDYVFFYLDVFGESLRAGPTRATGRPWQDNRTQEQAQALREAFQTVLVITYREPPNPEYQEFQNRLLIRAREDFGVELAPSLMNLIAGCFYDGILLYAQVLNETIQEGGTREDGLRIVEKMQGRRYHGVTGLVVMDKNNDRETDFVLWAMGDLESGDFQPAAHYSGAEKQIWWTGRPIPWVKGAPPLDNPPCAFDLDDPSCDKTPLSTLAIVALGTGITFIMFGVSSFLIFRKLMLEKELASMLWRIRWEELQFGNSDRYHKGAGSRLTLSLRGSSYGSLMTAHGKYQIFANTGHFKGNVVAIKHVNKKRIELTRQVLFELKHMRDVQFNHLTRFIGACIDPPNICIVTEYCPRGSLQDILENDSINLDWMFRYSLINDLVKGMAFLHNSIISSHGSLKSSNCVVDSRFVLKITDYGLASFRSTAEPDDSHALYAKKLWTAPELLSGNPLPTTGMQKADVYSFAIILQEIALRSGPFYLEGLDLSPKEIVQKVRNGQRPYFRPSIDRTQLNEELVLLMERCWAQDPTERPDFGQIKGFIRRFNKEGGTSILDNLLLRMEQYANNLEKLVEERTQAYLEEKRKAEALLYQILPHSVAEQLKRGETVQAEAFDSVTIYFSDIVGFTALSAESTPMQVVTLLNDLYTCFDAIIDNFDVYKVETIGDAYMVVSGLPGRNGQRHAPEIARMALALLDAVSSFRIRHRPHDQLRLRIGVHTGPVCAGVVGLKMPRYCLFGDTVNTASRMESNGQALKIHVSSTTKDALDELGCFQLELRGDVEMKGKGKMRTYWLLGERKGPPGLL
The experiment can be described thus: GC-B protein expression by Western blot in GH3 cells. As to conditions: 100 nM CNP, up to 24 h; n = 3; Fig. 4b. As for the experimental part:
GH3 cell lysates (from 1 × 10^6 cells) were prepared in lysis buffer (0.5 M TRIS pH 6.8, 10 % [v/v] glycerol, 1 % [w/v] SDS). Protein lysates were sonicated, boiled at 95 °C for 5 min, resolved by 10 % SDS-polyacrylamide gel electrophoresis, transferred to polyvivylidene difluoride membrane and probed for GC-B (1:2000 dilution) or β-actin (1:5000 dilution) expression. Appropriate horseradish-peroxidase-conjugated secondary antibodies were purchased from DAKO.
We next examined whether Npr2 or GC-B down-regulation (as determined by a reduction in Npr2 mRNA expression and or GC-B protein expression) mediated the inhibitory effects of sustained CNP exposure. The effect of CNP exposure on the expression of the endogenous Npr2 gene was examined by using qPCR. […] To establish whether down-regulation occurred at the protein level, total proteins were extracted from GH3 cells incubated for up to 24 h with 100 nM CNP.
Fig. 4 CNP fails to alter expression of Npr2 mRNA or GC-B protein in GH3 somatolactotrope cells. a GH3 cells were stimulated with 0 or 100 nM CNP for 24 h prior to extraction of total RNA, cDNA synthesis, and quantitative PCR for endogenous Npr2 expression. […] Blots were stripped and re-probed for β-actin. Panels are representative of three independent experiments (n = 3)

The target of experiment [2] is T1, GC-B. The experiment can be described thus: Effect of natriuretic peptide pre-treatment on CNP-stimulated (GC-B) cGMP accumulation in GH3 cells. As to conditions: 100 nM CNP pre-treatment, then 100 nM CNP 15 min with IBMX; ns, P > 0.05; Fig. 3a. As for the experimental part: Having established that GC-B signaling but not that of GC-A receptors, underwent rapid homologous desensitization, we next examined the effect of prolonged exposure of each receptor to its specific ligand. GH3 cells pre-treated with either ANP or CNP for 0 (control) to 6 h reduced the response to a subsequent 15-min treatment of ANP or CNP (with IBMX). […] The amount of cGMP measured from the 15-min pre-treatment sample was reduced by 39.6 ± 0.002 % (***P < 0.001). This effect was maintained up to the 6-h pre-treatment with CNP, which was reduced by 37.9 ± 7.1 % compared with the control (***P < 0.001).
Fig. 3 Effect of chronic exposure to CNP and ANP on GC-B- and GC-A-dependent cGMP accumulation in GH3 cells. Cells were initially treated with (a) 100 nM CNP or (b) 100 nM ANP in PSS without IBMX for 0 to 6 h. The medium was removed and replaced with 100 nM CNP (a) or 100 nM ANP (b) for 15 min in the presence of 1 mM IBMX. […]
In similar experiments designed to examine the effect of ANP pre-exposure to GC-A activity, a significant reduction in cGMP accumulation was observed within 30 min of ANP pre-treatment (by 28.9 ± 3.1 % compared with the control, *P < 0.05). […] In order to test the receptor specificity of the observed down-regulation of GC-B upon pre-treatment with CNP and of GC-A upon pre-treatment with ANP, the effects of ANP on GC-B and CNP on GC-A desensitization were determined. […]

In experiment [3] the target is T1, GC-B. The experiment can be described thus: Effect of protein phosphatase inhibitors on rapid homologous desensitization of CNP-stimulated cGMP accumulation in GH3 cells. Particulars: 100 nM CNP, 1 mM IBMX; 30 min pre-treatment with 100 nM OA, 1 nM cypermethrin or 1 mM Na3VO4; control = CNP alone; n = 3. As for the experimental part:
Fig. 2 Rapid homologous desensitization of CNP-dependent but not ANP-dependent cGMP accumulation in GH3 cells. Cells were treated with PSS containing either (a) 100 nM CNP or (b) 100 nM ANP for 0–15 min in the presence of 1 mM IBMX.
Similar short time-courses were performed, except that some cells were pre-treated with 100 nM okadaic acid (OA, a PP2A inhibitor), 1 nM cypermethrin (a PP2B inhibitor), or 1 mM sodium orthovanadate (Na3VO4, a protein tyrosine phosphatase inhibitor) for 30 min prior to CNP treatment (Fig. 2c).

Consider `CC[C@H](C)[C@@H]1NC(=O)[C@H](CCCNC(=N)N)NC(=O)[C@H](CC(=O)O)NC(=O)[C@H](CC(C)C)NC(=O)[C@H](CCCCN)NC(=O)[C@H](CC(C)C)NC(=O)CNC(=O)[C@H](Cc2ccccc2)NC(=O)[C@@H](NC(=O)CNC(=O)[C@H](CCCCN)NC(=O)[C@H](CO)NC(=O)[C@H](CC(C)C)NC(=O)CN)CSSC[C@@H](C(=O)O)NC(=O)CNC(=O)[C@H](CC(C)C)NC(=O)CNC(=O)[C@H](CO)NC(=O)[C@H](CCSC)NC(=O)[C@H](CO)NC(=O)CNC1=O` [CNP, C-type natriuretic peptide], for which the GC-B protein expression result at GC-B [1] is “failed to alter expression levels”. Further, the “difference in reduction of cGMP between 15-min and 6-h pre-treatments” value on GC-B [2] is recorded as “did not significantly differ between the 15-min to 6-h pre-treatments”. Also, on GC-B [3], the “rate of cGMP accumulation from 5 to 15 min (desensitization)” value is given as “underwent desensitization as shown by the failure to maintain the initial rate of cGMP accumulation”.
